Experimental data: patent US20240287046A1, “COMPOUNDS AND RADIOLIGANDS FOR TARGETING NEUROTENSIN RECEPTOR AND USES THEREOF” (Full-Life Technologies HK Limited, priority 2022, published 2024)

Key:
[1] = biological target: T1, human NTSR-1 (Homo sapiens (Human), UniProt P30989); test: radioligand competitive binding assay using ^177Lu labeled C-1 as reference radioligand; details: for Relative Binding Affinity: Mean IC50 of C-1/Mean IC50 of the test compound; for IC50: Nonlin fit, single assay, HT-29 cells
Procedure: The binding affinities of test compounds were determined by a radioligand competitive binding assay using ^177Lu labeled C-1 as the reference radioligand.
Briefly, 100 μL HT-29 cells expressing human NTSR-1 at a density of 1˜2×10^6 cells/mL were mixed with binding buffer (RPMI-1640 medium supplemented with 0.25% bovine serum albumin) in each well of the 96-well filter plate (Millipore). Then the cells in each well were incubated with ^177Lu—C-1 (0.55 μCi/well) and the test compound under 37° C. for 1 hr (n=3). After incubation, unbound ^177Lu—C-1 and the test compound in each well was removed by filtration using a Multiscreen vacuum manifold (Millipore) and the cells were further rinsed with the binding buffer for 5 times. The cells from each well were then collected and radioactivity of the cells in each well was individually measured by y counter (2480 WIZARD2, PerkinElmer). The best-fit IC50 value of test compounds (inhibitory concentration when 50% of the bound ^177Lu—C-1 on cells were displaced) were calculated by fitting the data with nonlinear regression using GraphPad Prism 8.0.1.

[2] = biological target: T1, human NTSR-1; test: FLIPR assay, inhibition of Neurotensin-induced intracellular-calcium mobilization; type: cell-based; details: for IC50 compared to comparator compound C-2: FLIPR assay; for IC50: HEK293 cells stably expressing human NTSR-1, mean, read-out: IC50 (nM) in FLIPR Assays
Procedure: Binding affinities of the representative compounds were also evaluated by FLIPR assay. Neurotensin receptor 1 belongs to the G-protein coupled receptors (GPCR) family. Activation of NTSR-1 by its ligand Neurotensin can induce intracellular-calcium mobilization. In FLIPR assay, the test compound and Neurotensin were incubated together with cells expressing NTSR-1 to measure inhibition of the intracellular-calcium mobilization by the test compound so that to evaluate its binding affinity.
Briefly, HEK293 cells stably expressing human NTSR-1 were plated in 384-well plates. 20 ul cell suspension at a concentration of 10×10^5 per ml was seeded in each well and incubated at 37° C. 5% CO2 overnight. Then the cells in each well were mixed with 20 ul probenecid assay buffer, 20 ul 8 uM Fluo-4 Direct™ Loading Buffer, 6×EC80 of Neurotensin and 10 μl of the diluted test compound, and incubated at 37° C. 5% CO2 for 50 min followed by incubation at room temperature for 10 min. The plate was then subject to FLIPR analysis.

[3] = tested on: ASPC-1 tumor-bearing mice; test: Biodistribution of radionuclide labeled complexes in ASPC-1 tumor-bearing mice; type: in vivo, BALB/c nude mice; details: ^177Lu-labeled complex
Procedure: The BALB/c nude mice (Charles River, Beijing) were utilized to establish the xenografted model for biodistribution study. All animal care and experimental procedure were performed by following the animal protocols approved by the ethics committee of China Institute of Radiation Protection.
Briefly, each mouse was inoculated with approximately 4×10^6 ASPC-1 cells (human pancreatic cancer cell line) or HT-29 cells (human colorectal adenocarcinoma cell line) expressing human NTSR-1 by subcutaneous injection at rear flank. After inoculation, the xenografted tumors were allowed to grow for ˜2-4 weeks till the tumor weight reached to about 0.05 to 0.50 g (0.20 g in average).
Biodistribution studies were performed by administrating the radionuclide labeled test compound at a dose of ˜30-50 μCi (100 μL in 0.9% NaCl, ˜1.11-1.85 MBq, with specific activity 30-250 μCi/nmol) to each animal through tail vein injection.
At different time points after the administration, the mice treated with each compound were euthanized. The tissues and organs of the animals in each group were collected, excised, weighed, and analyzed in a PerkinElmer 2480 WIZARD2γ counter, and the percent injected dose (% ID) and % ID/g of each organ or tissue were calculated.

[4] = read-out: LogIC50 Mean (converted)

T1 sequence (P30989 whole entry): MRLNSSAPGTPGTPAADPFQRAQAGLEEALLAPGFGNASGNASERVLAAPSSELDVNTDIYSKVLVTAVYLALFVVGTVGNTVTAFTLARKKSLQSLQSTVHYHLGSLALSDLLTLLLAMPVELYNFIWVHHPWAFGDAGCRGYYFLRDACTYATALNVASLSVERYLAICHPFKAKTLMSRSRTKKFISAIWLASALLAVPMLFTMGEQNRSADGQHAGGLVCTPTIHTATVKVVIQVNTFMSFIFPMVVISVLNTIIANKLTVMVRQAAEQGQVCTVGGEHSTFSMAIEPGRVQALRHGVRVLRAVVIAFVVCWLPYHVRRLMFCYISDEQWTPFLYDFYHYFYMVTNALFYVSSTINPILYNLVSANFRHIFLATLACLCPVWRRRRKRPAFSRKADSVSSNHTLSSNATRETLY

Row | SMILES | Relative Binding Affinity [1] | AUC (0-72 h) ratio Tumor/Blood [3] | AUC (0-72 h) ratio Tumor/Kidney [3] | AUC (0-72 h) ratio Tumor/Liver [3] | AUC (0-72 h) ratio Tumor/Lung [3] | other results
1 | COc1cccc(OC)c1-c1cc(C(=O)NC2(C(=O)O)C3CC4CC(C3)CC2C4)nn1-c1ccc(NC(=O)CCCN(C)CCCN(C)C(=O)CN2CCN(CC(=O)O)CCN(CC(=O)O)CCN(CC(=O)O)CC2)cc1C(C)C (stereo not shown) [Compound I-5, 2,2′,2″-(10-(2-((3-((4-((4-(3-((2-carboxyadamantan-2-yl)carbamoyl)-5-(2,6-dimethoxyphenyl)-1H-pyrazol-1-yl)-3-isopropylphenyl)amino)-4-oxobutyl)(methy)amino)propyl)(methyl)amino)-2-oxoethyl)-1,4,7,10-tetraazacyclododecane-1,4,7-triyl)triacetic acid] | 146.4 | 10.0 | 14.2 | 16.7 | 48.3 | IC50 compared to comparator compound C-2 [2]: lower IC50; IC50 [2]: 26.9 nM
2 | COc1cccc(OC)c1-c1cc(C(=O)NC2(C(=O)O)C3CC4CC(C3)CC2C4)nn1-c1ccc(NCCCN(C)CCCNC(=O)CN2CCN(CC(=O)O)CCN(CC(=O)O)CCN(CC(=O)O)CC2)cc1C(C)C (stereo not shown) [Compound I-2, 2,2′,2″-(10-(2-((3-((3-((4-(3-((−2-carboxyadamantan-2-yl)carbamoyl)-5-(2,6-dimethoxyphenyl)-1H-pyrazol-1-yl)-3-isopropylphenyl)amino)propyl)(methyl)amino)propy)amino)-2-oxoethyl)-1,4,7,10-tetraazacyclododecane-1,4,7-triyl)triacetic acid] |  | 12.5 | 10.4 | 10.6 | 39.4 | IC50 ([1]; read-out: IC50 (nM) Mean): 0.559 nM; IC50 [1, 4]: 0.558 nM
3 | COc1cccc(OC)c1-c1cc(C(=O)NC2(C(=O)O)C3CC4CC(C3)CC2C4)nn1-c1ccc(OCCCN(C)CCCN(C)C(=O)CN2CCN(CC(=O)O)CCN(CC(=O)O)CCN(CC(=O)O)CC2)cc1C(C)C (stereo not shown) [Compound I-7, 2,2′,2″-(10-(2-((3-((3-(4-(3-((2-carboxyadamantan-2-yl)carbamoyl)-5-(2,6-dimethoxyphenyl)-1H-pyrazol-1-yl)-3 isopropylphenoxy)propyl)(methyl)amino)propyl)(methyl)amino)-2-oxoethyl)-1,4,7,10-tetraazacyclododecane-1,4,7-triyl)triacetic acid] | 156.7 | 34.4 | 18.1 | 23.1 | 40.1 | IC50 compared to comparator compound C-2 [2]: lower IC50; IC50 [2]: 11.7 nM
4 | COc1cccc(OC)c1-c1cc(C(=O)NC2(C(=O)O)C3CC4CC(C3)CC2C4)nn1-c1ccc(NCCOCCOCCNC(=O)CN2CCN(CC(=O)O)CCN(CC(=O)O)CCN(CC(=O)O)CC2)cc1C(C)C (stereo not shown) [Compound I-10, 2,2′,2″-(10-(2-((2-(2-(2-((4-(3-((2-carboxyadamantan-2-yl)carbamoyl)-5-(2,6-dimethoxyphenyl)-1H-pyrazol-1-yl)-3-isopropylphenyl)amino)ethoxy)ethoxy)ethyl)amino)-2-oxoethyl)-1,4,7,10-tetraazacyclododecane-1,4,7-triyl)triacetic acid] | 28.3 | 58.0 | 15.4 | 41.1 | 31.3 | binding affinity vs 3BP-227 (C-2) on removal of the tertiary amine motif in the linker [1]: not compromise the binding affinity
5 | COc1cccc(OC)c1-c1cc(C(=O)NC2(C(=O)O)C3CC4CC(C3)CC2C4)nn1-c1ccc(CCCCN(C)CCCN(C)C(=O)CN2CCN(CC(=O)O)CCN(CC(=O)O)CCN(CC(=O)O)CC2)cc1C(C)C (stereo not shown) [Compound I-9, 2,2′,2″-(10-(2-((3-((4-(4-(3-((2-carboxyadamantan-2-yl)carbamoyl)-5-(2,6-dimethoxyphenyl)-1H-pyrazol-1-yl)-3-isopropylphenyl)butyl)(methyl)amino)propyl)(methyl)amino)-2-oxoethyl)-1,4,7,10-tetraazacyclododecane-1,4,7-triyl)triacetic acid] | 243.5 |  |  |  |  | 
6 | COc1cccc(OC)c1-c1cc(C(=O)NC2(C(=O)O)C3CC4CC(C3)CC2C4)nn1-c1ccc(NC(=O)COCCOCCNC(=O)CN2CCN(CC(=O)O)CCN(CC(=O)O)CCN(CC(=O)O)CC2)cc1C(C)C (stereo not shown) [Compound I-12] | 11.2 |  |  |  |  | 

Continued, in another order:

Row | Relative Binding Affinity [1] | AUC (0-72 h) ratio Tumor/Blood [3] | AUC (0-72 h) ratio Tumor/Kidney [3] | AUC (0-72 h) ratio Tumor/Liver [3] | AUC (0-72 h) ratio Tumor/Lung [3] | SMILES | other results
7 | 82.6 | 36.5 | 5.6 | 12.8 | 39.3 | COc1cccc(OC)c1-c1cc(C(=O)NC2(C(=O)O)C3CC4CC(C3)CC2C4)nn1-c1ccc(N(C)CCCN(C)CCCN(C)C(=O)CN2CCN(CC(=O)O)CCN(CC(=O)O)CCN(CC(=O)O)CC2)cc1C(C)C (stereo not shown) [Compound I-1, 2,2′,2″-(10-(2-((3-((3-((4-(3-((2-carboxyadamantan-2-yl)carbamoyl)-5-(2,6-dimethoxyphenyl)-1H-pyrazol-1-yl)-3-isopropylphenyl)(methyl)amino)propyl)(methyl)amino)propyl)(methyl)amino)-2-oxoethyl)-1,4,7,10-tetraazacyclododecane-1,4,7-triyl)triacetic acid] | IC50 ([1]; read-out: IC50 (nM) Mean): 0.465 nM; IC50 [1, 4]: 0.465 nM; binding affinity compared to comparator compound C-1 or C-3 ([1]; single radioligand competitive binding assay): higher binding affinity
8 | 3.1 |  |  |  |  | COc1cccc(OC)c1-c1cc(C(=O)NC2(C(=O)O)C3CC4CC(C3)CC2C4)nn1-c1ccc(N(CCCN(C)C)C(=O)COCCOCCNC(=O)CN2CCN(CC(=O)O)CCN(CC(=O)O)CCN(CC(=O)O)CC2)cc1C(C)C (stereo not shown) [Compound I-6] | IC50 compared to comparator compound C-2 [2]: lower IC50; IC50 [2]: 16.2 nM
9 | 22.0 |  |  |  |  | COc1cccc(OC)c1-c1cc(C(=O)NC2(C(=O)O)C3CC4CC(C3)CC2C4)nn1-c1ccc(N(CCCN(C)C)C(C)=O)cc1C(C)C (stereo not shown) [Compound C-4, reference compound] | 
10 | 107.6 |  |  |  |  | COc1cccc(OC)c1-c1cc(C(=O)NC2(C(=O)O)C3CC4CC(C3)CC2C4)nn1-c1ccc(NCCCN(C)C)cc1C(C)C (stereo not shown) [II-1, 2-(5-(2,6-dimethoxyphenyl)-1-(4-((3-(dimethylamino)propyl)amino)-2-isopropylphenyl)-1H-pyrazole-3-carboxamido)adamantane-2-carboxylic acid] | improvement of potency vs SR142948 (C-3) ([1]; removal of the carbonyl group from the amide group): ≥ 10 fold
11 | 14.6 |  |  |  |  | COc1cccc(OC)c1-c1cc(C(=O)NC2(C(=O)O)C3CC4CC(C3)CC2C4)nn1-c1ccc(N(CCCN(C)C)C(=O)COCCOCCNC(=O)CN2CCN(CC(=O)O)CCN(CC(=O)O)CC2)cc1C(C)C (stereo not shown) [Compound I-13] | 
